# Positions of bridges follow the written chain, without caps; N, C: chain ends. Non-standard residues stand in square brackets, D forms with d. No end group written: not given here. Gla = N[C@@H](CC(C(=O)O)C(=O)O)C(=O)O
# How the values were obtained:
# [1] = Gla-OC and Glu-OC in serum by ELISA; assay type: in vivo; details: 5×FAD Tg mice vs Tg controls, 300 ng per mouse per day
# Text: Two-month old 5×FAD Tg mice, both male as well as female were used for the study. For the purposes of this study wild type mice is referred to as Wt and 5×FAD mice is referred to as Tg. All experimental procedures in were approved by the Institutional Animal Ethics Committee. For experimentation, the mice were divided in below groups for treatment:
# 1. Wild type mice given vehicle (lx PBS or phosphate buffered saline; pH 7.4). 2. 5×FAD Transgenic mice given vehicle. 3. 5×FAD Transgenic mice given carboxylated osteocalcin (Gla-OC) subcutaneously at doses (300 ng-1000 ng per mouse of weight ranging from 25-28 g for 1 month). 4. Wild type mice given Gla-OC.
# Foremost the status of osteocalcin in long bones and serum of amyloid overexpressing 5×FAD Tg mice was evaluated. Thereafter, the effect of osteocalcin administration against amyloidosis in brain was tested. 1. The status of osteocalcin expression in bone was determined by evaluating the mRNA level of Bglap2 gene (gene that encodes osteocalcin in mouse) using quantitative PCR or qPCR. Long bones of mice like femur and tibia were harvested from mice after sacrifice. […] Following amplification, fold changes in gene expression versus β-actin (reference) analysis was determined using the […] (Livak) method. […] Carboxylated (Gla-OC) and undercarboxylated (Glu-OC) forms of osteocalcin in serum of mice was analyzed by ELISA. […]
# TFEB = TFEB localization, transcription, protein expression and phosphorylation in astrocytes; assay type: cell-based, mouse; details: qPCR
# astrocytes = experiment: Lysotracker Red / HiLyte Abeta42 confocal microscopy in astrocytes; assay type: cell-based, mouse
# Experimental: This was further confirmed by surface staining of LRP1 and confocal microscopy (FIG. 4Gc). […] We next assessed how Abeta42 degradation occurs in Gla-OC exposed astrocytes. This was assessed by first evaluating the protein expression of LC3II by immunoblot analysis. Under normal conditions excess cargo in cell is cast-off by a cell through a recycling pathway called ‘autophagy’. The first step in autophagy is autophagosome formation wherein LC3I a cytosolic microtubule associated protein light chain 3 gets lipidated to form LC3II and recruits to autophagosomal membranes to allow cells to be LC3II*, a bona fide marker of autophagy and the first step towards autophagic lysosomal degradation. Another requirement for autophagosomes to be functionally relevant is downstream fusion with lysosomes. Under normal conditions, autophagosomes fuse with endosomes to form a higher order organelle called […] ‘amphisomes’, which then matures to form ‘autolysosomes or terminal lysosomes’. The efficiency of autophagosome/lysosome fusion was evaluated using Lysotracker Red, a fluorescent dye that preferentially accumulates in vesicles with acidic pH. The cells were treated with Lysotracker Red for 20 min and fixed using ice-cold methanol. After confocal microscopy (Ziess) the images were analyzed using Image J (NIH). The co-occurrence of the two signals is shown as Mander's overlap co-efficient (MOC) in the range of values 0 to 1. […] This dye accumulates in acidic intracellular organelles and its fluorescence increases with acidic environments and decreases with that of alkaline. The status of lysosome biogenesis was assessed by immunoblot or immunocytochemistry. […] To evaluate lysosome biogenesis the status of LAMP2 (by immunoblot), cathepsins (by immunoblot and colorimetric activity based assay) and TFEB or transcription factor EB (by immunocytochemistry for cellular localization of transcription, by PCR for evaluating gene transcription, by immunoblot for protein expression and by co-immunoprecipitation and immunoblot to check phosphorylation of TFEB) were evaluated. […]
molecule,measurement,setting,value
"YLYQWLGAPVPYPDPL[Gla]PRR[Gla]VC[Gla]LNPDCDELADHIGFQEAYRRFYGPV (disulfide 23-29) [Gla-OC, carboxylated osteocalcin]",level of Gla-OC in serum,[1],significantly increased (p<0.05)
Cn1cnc(N)c2ncnc1-2 [3-methyl adenine],transcription of Tfeb gene in the presence of autophagy inhibitors,TFEB,increased
"HiLyte Abeta42: fluorescent HiLyte labelled Abeta42 peptide added to astrocytes; challenge agent, Abeta42 alone comparator","number of Lysotracker Red puncta, lower as compared to basal",astrocytes; HiLyte Abeta42 treated cells without Gla-OC,4 fold
same,size of Lysotracker Red puncta,astrocytes; astrocyte cultures,< 0.25 μm^2
same,degree of co-localization of HiLyte Abeta42 with Lysotracker Red (Mander's overlap co-efficient),"astrocytes; range of values 0 to 1, Image J analysis",0.412
CCN(CC)CCCC(C)Nc1ccnc2cc(Cl)ccc12 (stereo not drawn) [chloroquine],transcription of Tfeb gene in the presence of autophagy inhibitors,TFEB,increased
